PMC8187357 (Communications Biology, 2021)
Values joined by “and” are separate entries in the source; they are usually repeats but may differ in a detail not shown here. Equal entries are not always repeated.

Columns and labels:
[1] = target: T1, VISTA (Homo sapiens, UniProt Q9H7M9); experiment: VISTA functional assay (IFN-γ release, human PBMC); type: cell-based; conditions: for IFNγ Rescue (%): inhibited by VISTA; for IFNγ Rescue (%) / IFN-γ: replicates; for IFN-γ: human PBMCs + anti-CD3/anti-CD28 + VISTA 2.5 µg/mL
T1 construct: purchased R&D systems 126-B7
Description: The ability of CA-170 to rescue VISTA-mediated inhibition of IFN-γ release from anti-CD3/CD28-stimulated human PBMC was used to monitor the effect of CA-170 on VISTA functionality. Briefly, 96-well cell culture plates were pre-coated with recombinant human VISTA (2.5 µg/mL) and anti- human CD3 (2.5 µg/mL) overnight at 4 °C. Anti-human VISTA and isotype control antibodies were either coated along with the VISTA or incubated for 30 min next day before addition of cells. On the next day, plates were incubated with CA-170 for 30 min at different concentrations. Isolated PBMC (0.1 × 10^6 cells/well) and anti-human CD28 antibodies (1 µg/mL) were added to the wells. The culture was further incubated for 72 h at 37 °C with 5% CO2. After 72 h of incubation the cell culture supernatants were collected after brief centrifugation at 200 g x 5 min at 4 °C and processed for human IFN-γ measurement by ELISA following manufacturer’s protocol (R&D Systems; DY-285). Percent rescue of IFN-γ release was calculated by normalizing individual percent test agent IFN-γ release values to percent anti-CD3 and anti-CD28 antibodies stimulated IFN-γ release. EC50 values were derived by plotting transformed data into non-linear fit in sigmoidal dose–response curve using GraphPad Prism software (Version 7).

[2] = test system: TNFα; experiment: CEREP 80 panel binding: Cytokines; conditions: 10 µM
Description: (§1) CEREP 80 panel assay was carried out by Eurofins Cerep Panlabs facility at France. A series of binding assays was carried out to understand the off-target toxicity of CA-170. CA-170 was tested at 10 μM test concentration in duplicates. Compound binding was calculated as a % inhibition of the binding of a radioactively labeled ligand specific for each target. In each experiment the respective reference compound was tested concurrently with CA-170, and the data were compared with historical values determined at Eurofins. The experiment was accepted in accordance with Eurofins validation standard operating procedure. The results are expressed as a percent of control specific binding; (measured specific binding / control specific binding) × 100 and as a percent inhibition of control specific binding; 100−(measured specific binding / control specific binding) × 100 obtained in the presence of CA-170. The IC50 values (concentration causing a half-maximal inhibition of control specific binding) and Hill coefficients (nH) were determined by non-linear regression analysis of the competition curves generated with mean replicate values using Hill equation curve fitting.

[3] = test system: human PBMCs; experiment: Cytokine induction in human PBMCs; type: cell-based; conditions: for IFNγ: 48 h, normal density, replicates
Description: To determine the potential for any unforeseen T-cell agonist activity in humans, a study was conducted where human PBMCs from healthy donors were pre-cultured either at normal density (2 × 10^5 cells/well) or at high density (1 × 10^7 cells/mL) in vitro to increase cell–cell contacts and immune scanning as described[24] and then treated with CA-170 (10 nM to 1000 nM) IL-2, TNF-α and IFN-γ cytokine release was measured in the culture supernatants at 24 and 48 h. Human PBMCs stimulated with anti-CD3 alone or anti-CD3 + anti-CD28 antibodies served as positive controls for cytokine release in this assay.

[4] = test system: Adenosine A1, A2A, A3; experiment: CEREP 80 panel binding: Adenosine; conditions: 10 µM
Description: as §1

[5] = test system: GR, PPARγ; experiment: CEREP 80 panel binding: Nuclear receptors; conditions: 10 µM
Description: as §1

[6] = test system: 5HT1A, 5HT1B, 5HT2A, 5HT2B, 5HT2C, 5HT3, 5HT5A, 5HT6, 5HT7; experiment: CEREP 80 panel binding: Serotonin; conditions: 10 µM
Description: as §1

[7] = test system: Neurokinin NK1, NK2, NK3 (antagonist); experiment: CEREP 80 panel binding: Neurokinin; conditions: 10 µM
Description: as §1

[8] = target: T2, Cannabinoid CB1 (Homo sapiens, UniProt P21554); experiment: CEREP 80 panel binding: Cannabinoid; conditions: read-out: % Inhibition of Control Specific Binding
T2 construct: Eurofins Cerep Panlabs
Description: as §1

[9] = test system: Glutamate PCP; experiment: CEREP 80 panel binding: Glutamate; conditions: 10 µM
Description: as §1

[10] = test system: MC38 tumor bearing mice; experiment: Immune pharmacodynamics in MC38 model; type: in vivo, mouse; conditions: CA-170, 10 mg/kg, individual animals
Description: For the measurement of immune pharmacodynamics, CT26 cells were subcutaneously implanted into 5 to 7 weeks old male Balb/c mice by injecting 1 million CT26 tumor cells/ animal. When tumor volume reached ~200mm^3, animals were randomized and allocated to three treatment groups (n = 5). Similarly, for the measurement of immune pharmacodynamics in MC38 model, MC38 cell lines were subcutaneously implanted into 5 to 7 weeks old male C57B6 mice by injecting 0.5 million cells/animal. Dosing was initiated when tumor volume reached ~100 mm^3. In both tumor models, mice were orally treated daily with vehicle and CA-170 (10 mg/kg) for 5 days. As an additional control, anti-PD1 antibody (100 μg/animal, clone J43) was dosed intraperitoneally on day 1. After 24 h of last dosing, animals were sacrificed, and blood samples and tumor tissues were collected from each animal and processed for PD evaluation using antibodies shown in Supplementary Table 1 and specific methods reported in publication[51] and analyzed by FACS. The gating strategy is detailed in Supplementary Fig. 3.

T1 sequence (Q9H7M9 with tags, fused parts or gaps limits assumed): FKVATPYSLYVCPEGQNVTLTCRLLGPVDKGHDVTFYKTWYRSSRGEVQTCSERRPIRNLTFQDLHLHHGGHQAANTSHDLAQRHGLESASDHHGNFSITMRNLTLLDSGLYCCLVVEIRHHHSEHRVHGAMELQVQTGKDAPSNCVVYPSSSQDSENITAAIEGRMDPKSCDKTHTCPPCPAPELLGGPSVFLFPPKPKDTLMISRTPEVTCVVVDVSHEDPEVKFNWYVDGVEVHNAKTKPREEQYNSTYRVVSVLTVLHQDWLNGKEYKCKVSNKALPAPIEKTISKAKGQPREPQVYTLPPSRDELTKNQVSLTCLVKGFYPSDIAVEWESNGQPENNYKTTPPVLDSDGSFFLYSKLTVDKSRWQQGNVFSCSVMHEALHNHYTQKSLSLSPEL
T2 sequence (P21554 whole entry): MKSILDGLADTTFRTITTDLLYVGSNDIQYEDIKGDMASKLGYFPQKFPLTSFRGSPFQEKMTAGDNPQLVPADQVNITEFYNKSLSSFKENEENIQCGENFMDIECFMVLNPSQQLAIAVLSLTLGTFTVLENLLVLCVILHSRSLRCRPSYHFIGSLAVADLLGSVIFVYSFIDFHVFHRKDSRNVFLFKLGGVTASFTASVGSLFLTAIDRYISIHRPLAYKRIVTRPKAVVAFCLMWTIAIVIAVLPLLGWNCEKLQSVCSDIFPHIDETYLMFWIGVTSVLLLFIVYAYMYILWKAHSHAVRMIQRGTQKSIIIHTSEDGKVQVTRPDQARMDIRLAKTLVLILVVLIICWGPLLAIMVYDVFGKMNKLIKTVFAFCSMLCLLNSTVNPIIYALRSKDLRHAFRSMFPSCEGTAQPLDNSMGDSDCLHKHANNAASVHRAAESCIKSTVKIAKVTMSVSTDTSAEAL

C[C@@H](O)[C@H](NC(=O)N[C@@H](CC(N)=O)c1nc([C@@H](N)CO)no1)C(=O)O [CA-170]
IFNγ Rescue (%) ([1]; 1.95 nM): -2.58% and 0.00% and 0.36% | IFNγ Rescue (%) ([1]; 3.91 nM): -0.86% and 0.32% and 1.09% | IFNγ Rescue (%) ([1]; 7.81 nM): 5.58% and 4.87% and 6.18% | IFNγ Rescue (%) ([1]; 15.63 nM): 21.46% and 16.88% and 19.64% | IFN-γ ([1]; 31.25 nM): 1018 pg/mL and 1268 pg/mL and 1298 pg/mL | IFNγ Rescue (%) ([1]; 31.25 nM): 36.91% and 37.66% and 42.55% | IFNγ Rescue (%) ([1]; 62.50 nM): 48.07% and 36.69% and 46.91% | IFNγ Rescue (%) ([1]; 250.00 nM): 107.73% and 72.73% and 91.64% | IFN-γ ([1]; 500 nM): 2498 pg/mL and 2438 pg/mL and 2828 pg/mL | IFNγ Rescue (%) ([1]; 500.00 nM): 100.43% and 75.65% and 98.18% | rescue of IFNγ release inhibited by recombinant VISTA (in words) ([1]; human PBMCs stimulated with anti-CD3 and anti-CD28): rescued IFNγ release | EC50 ([1]; mean ± S.D., n=4, read-out: Human PBMC IFN-γ Rescue EC50 VISTA): 82.9 nM | % Inhibition of Control Specific Binding [2]: < 0% | IFN-γ ([3]; 24 hours, Normal density, 10nM): BLoD | IFN-γ ([3]; 24 hours, Normal density, 50nM): BLoD | IFN-γ ([3]; 24 hours, Normal density, 100nM): BLoD | IFN-γ ([3]; 24 hours, Normal density, 250nM): BLoD | IFN-γ ([3]; 24 hours, Normal density, 500nM): BLoD | IFN-γ ([3]; 24 hours, Normal density, 1000nM): BLoD | IFNγ ([3]; 10 nM): BLOD | IFNγ ([3]; 50 nM): BLOD | IFNγ ([3]; 100 nM): BLOD | IFNγ ([3]; 250 nM): BLOD | IFNγ ([3]; 500 nM): BLOD | IFNγ ([3]; 1000 nM): BLOD | IFN-γ ([3]; human, 24 h, 10 nM): 2.8 ± 1.9 pg/mL | IFN-γ ([3]; human, 24 h, 50 nM): 1.5 ± 1.0 pg/mL | IFN-γ ([3]; human, 24 h, 100 nM): 1.5 ± 0 pg/mL | IFN-γ ([3]; human, 24 h, 250 nM): 4.0 ± 0.7 pg/mL | IFN-γ ([3]; human, 24 h, 500 nM): 6.8 ± 1.5 pg/mL | IFN-γ ([3]; human, 24 h, 1000 nM): 5.8 ± 1.4 pg/mL | cytokine induction (in words) ([3]; normal and high-density culture conditions): did not induce significant levels of cytokines | % Inhibition of Control Specific Binding [4]: ≤ 26% | % Inhibition of Control Specific Binding [5]: ≤ 7% | % Inhibition of Control Specific Binding [6]: ≤ 20% | % Inhibition of Control Specific Binding [7]: ≤ 6% | inhibition at 10 µM [8]: 12% | % Inhibition of Control Specific Binding [9]: 5% | CD8+ GNZ+ T cells in Tumor % Lymphocytes, CD3+, CD8+ T cells [10]: 52.4% and 36.3% and 28.5% and 36.2% and 20.1% | CD8+ IFN-γ+ T cells in Blood % Lymphocytes, CD3+, CD8+ T cells [10]: 1.71% and 2.24% and 2.27% and 1.35% and 2.63% | CD8+ IFN-γ+ T cells in Tumor % Lymphocytes, CD3+, CD8+ T cells [10]: 64.9% and 53.2% and 43.5% and 48.8% and 40.7%
